Measured values taken from PubChem BioAssay (NCI).
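Cultured in 96-well plates, cells were exposed to test compound for 48 hours across five concentrations. The concentration for full growth arrest is given as TGI.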 Where a SMILES comes first, the peptide text is derived from it. Square brackets hold non-standard residues; d marks the D form. Peptide text beside a SMILES is read from it. [ ]: non-standard residue; d: D form. The star is where a group is joined. ξ: configuration not given here. Phe(4-NO2) = N[CH](Cc1ccc([N+](=O)[O-])cc1)C(=O)O; ξPhe(4-NO2) = NC(Cc1ccc([N+](=O)[O-])cc1)C(=O)O; Boc = CC(C)(C)OC(=O)*

Experiments:
Assay in all cases: inhibition of tumour cell growth, NCI panel, 48 h
MALME-3M melanoma = system: MALME-3M melanoma
T-47D breast = system: T-47D breast
IGROV1 ovarian = system: IGROV1 ovarian
786-0 renal = system: 786-0 renal
SNB-19 CNS = system: SNB-19 CNS
HS 578T breast = system: HS 578T breast
A549 NSCLC = system: A549 NSCLC
KM12 colon = system: KM12 colon
CAKI-1 renal = system: CAKI-1 renal

Row | SMILES | TGI (MALME-3M melanoma) | TGI (T-47D breast) | TGI (IGROV1 ovarian) | TGI (786-0 renal) | TGI (SNB-19 CNS) | TGI (HS 578T breast) | TGI (A549 NSCLC) | TGI (KM12 colon) | TGI (CAKI-1 renal)
1 | COC(=O)[C@]1(Cc2ccc3ccccc3c2)CCCCCCN1C(=O)c1ccccc1 | > 53.2 µM | > 54.3 µM | > 58.2 µM | > 53.2 µM | > 81.8 µM | > 56.1 µM | > 100 µM | > 49 µM | 
2 | COc1cc2c3c(c1OC)C(=O)C(=O)C1=C3N(CCC1)CC2 |  | > 100 µM | > 100 µM | > 100 µM | > 100 µM | 47.6 µM | > 100 µM | 44.5 µM | > 100 µM
3 | O=C(NNC(=O)c1c(Cl)c(Cl)c(Cl)c(Cl)c1-c1nc2ccccc2[nH]1)c1ccc(Cl)cc1 | > 100 µM | 93.5 µM | > 100 µM | > 100 µM | > 100 µM |  | > 100 µM | > 100 µM | > 100 µM
4 | Brc1ccc(C2CC3(c4ccccc4)ON=C(c4ccccc4)N3c3ccccc3S2)cc1 (centres undefined) | > 100 µM | > 100 µM | > 100 µM | > 100 µM | > 100 µM | > 100 µM | > 100 µM | > 100 µM | 
5 | CC(C)C1=CC23CCC4C(C)(C(=O)O)CCCC4(C)C2CC1C1C(=O)N(c2cccc(N4C(=O)C5C6CC7C8(C)CCCC(C)(C(=O)O)C8CCC7(C=C6C(C)C)C5C4=O)c2)C(=O)C13 (centres undefined) | 32.9 µM | 33.7 µM |  | > 100 µM |  | 24.6 µM | > 100 µM | 9.7 µM | 
6 | C[C@H](CO)C1=CC(C#C[Si](C)(C)C)N(C(=O)Oc2ccccc2)c2ccccc21 (some centres undefined) |  | 38.1 µM | 29.9 µM | 27.2 µM | 29.8 µM | 26.4 µM | 26.8 µM | 21.8 µM | 28.7 µM
7 | O=C1CSC(c2cccc(Oc3ccccc3)c2)N1c1cccc(Cl)c1Cl (centres undefined) | 82.9 µM | > 100 µM |  | 87.7 µM | > 100 µM | 84.7 µM | > 100 µM | > 100 µM | > 100 µM
8 | N#Cc1c2ccc([N+](=O)[O-])cc2c(=O)n2c1sc1ccccc12 |  | 71.4 µM |  | > 100 µM | 36.9 µM | > 100 µM | 28.5 µM | > 100 µM | > 100 µM
9 | COc1cc(C2SCC(=O)N2NC(=O)c2ccc(NC(C)=O)cc2OC)ccc1O (centres undefined) | > 100 µM | > 100 µM | > 100 µM | > 100 µM | > 100 µM | > 100 µM | > 100 µM |  | > 100 µM
10 | Cc1ccc(N2C3=C(CC4=C2CC(C)(C)CC4=O)C(=O)CC(C)(C)C3)cc1 | > 100 µM |  | > 100 µM | > 100 µM | > 100 µM | > 100 µM | > 100 µM | > 100 µM | > 100 µM
11 | CCSc1nc(C)nc2c1sc1nc3ccccc3n12 |  | > 100 µM | > 100 µM | > 100 µM | > 100 µM | 92.9 µM | > 100 µM | > 100 µM | > 100 µM
12 | CN(C)c1c(C2CC(O)C(CO)O2)c(=O)c1=O (centres undefined) |  | > 100 µM | > 100 µM | > 100 µM | > 100 µM | > 100 µM | > 100 µM | > 100 µM | 
13 | CC(C)(C)OC(=O)N1CCC(NC(=O)NC2CCN(C(=O)OC(C)(C)C)CC2)CC1 | > 100 µM |  | > 100 µM | > 100 µM | > 100 µM | > 100 µM | > 100 µM | > 100 µM | > 100 µM
14 | O=c1oc2ccccc2n1CCCn1c(=O)oc2ccccc21 | > 100 µM |  | > 100 µM | > 100 µM | > 100 µM | > 100 µM |  | > 100 µM | > 100 µM
15 | C/C(=N\Nc1nc2ccccc2o1)c1cc2ccccc2cn1 | 5.51 µM | > 100 µM |  | 6.61 µM | 20.5 µM | 11.2 µM | 9.46 µM | 7.85 µM | 11.1 µM
16 | CCCCN1CCC(O)(c2cc(C(=O)O)[nH]c2-c2cc(C)no2)C1=O (centres undefined) | > 100 µM |  | > 100 µM | > 100 µM | > 100 µM | > 100 µM | > 100 µM | > 100 µM | > 100 µM
17 | CCNC(=O)CNC(=O)C(Cc1ccc([N+](=O)[O-])cc1)NC(=O)OC(C)(C)C (centres undefined) (Boc-[ξPhe(4-NO2)]-Gly-NHEt) | > 100 µM |  | > 100 µM | > 100 µM | > 100 µM | > 100 µM | > 100 µM | > 100 µM | > 100 µM
18 | COc1cc(OC2OC(CO)C(O)C(O)C2O)c2c(c1)O[C@@H]1[C@H](O)Oc3cc(OC)c(OC)cc3[C@]1(O)C2=O (some centres undefined) |  | > 25 µM | > 25 µM | > 25 µM | > 25 µM | > 25 µM | > 25 µM | > 25 µM | > 25 µM
19 | CN(C(=O)c1ccc(Cl)cc1)C(=S)N1CCN(c2ccccc2)CC1 | > 100 µM | > 100 µM | > 100 µM | > 100 µM | > 100 µM | 95.6 µM | > 100 µM | > 100 µM | 
20 | O=C1/C(=C\c2cccc(Oc3ccccc3)c2)SC(c2ccccc2)N1c1cccc(Cl)c1 (centres undefined) | > 100 µM | > 100 µM |  | > 100 µM | > 100 µM | > 100 µM | > 100 µM | > 100 µM | > 100 µM
21 | Cc1nn(C(=O)c2ccncc2)c2c1C(c1ccc([N+](=O)[O-])cc1)SC(N)=N2 (centres undefined) | > 100 µM | > 100 µM | > 100 µM | > 100 µM | > 100 µM | > 100 µM | > 100 µM | > 100 µM | 
22 | NS(=O)(=O)c1nnc(NC(=O)/C=C/C(=O)O)s1 | > 100 µM | > 100 µM |  | > 100 µM | > 100 µM | > 100 µM | > 100 µM | > 100 µM | > 100 µM
23 | COC(=O)CCC(NC(=O)C(CCC(=O)OC)NC(=O)C(CCC(=O)OC)NC(=O)C(CCC(=O)OC)NC(=O)C(CCC(=O)OC)NC(=O)C(Cc1ccc([N+](=O)[O-])cc1)NC(=O)C(CCC(=O)OC)NC(=O)C(CCC(=O)OC)NC(=O)C(CCC(=O)OC)NC(=O)C(CCC(=O)OC)NC(=O)C(CCC(=O)OC)NC(C)=O)C(N)=O (centres undefined) (Ac-E(OMe)E(OMe)E(OMe)E(OMe)E(OMe)[Phe(4-NO2)]E(OMe)E(OMe)E(OMe)E(OMe)E(OMe)-NH2; configuration not given here) | > 100 µM |  | > 100 µM | > 100 µM | > 100 µM | > 100 µM | > 100 µM | > 100 µM | > 100 µM
